Results published in patent US20080004272A1, “Compositions and methods for modulating gated ion channels” (PainCeptor Pharma Corporation, priority 2006, published 2008).

The molecules below were run against T1, ASIC1a (Homo sapiens, UniProt P78348) (assay: Calcium imaging of MES-induced calcium response (FlexStation, "Flex")). Details: 40 μM, ASIC1a expressing HEK293 cells.
T1 sequence (P78348 1-528): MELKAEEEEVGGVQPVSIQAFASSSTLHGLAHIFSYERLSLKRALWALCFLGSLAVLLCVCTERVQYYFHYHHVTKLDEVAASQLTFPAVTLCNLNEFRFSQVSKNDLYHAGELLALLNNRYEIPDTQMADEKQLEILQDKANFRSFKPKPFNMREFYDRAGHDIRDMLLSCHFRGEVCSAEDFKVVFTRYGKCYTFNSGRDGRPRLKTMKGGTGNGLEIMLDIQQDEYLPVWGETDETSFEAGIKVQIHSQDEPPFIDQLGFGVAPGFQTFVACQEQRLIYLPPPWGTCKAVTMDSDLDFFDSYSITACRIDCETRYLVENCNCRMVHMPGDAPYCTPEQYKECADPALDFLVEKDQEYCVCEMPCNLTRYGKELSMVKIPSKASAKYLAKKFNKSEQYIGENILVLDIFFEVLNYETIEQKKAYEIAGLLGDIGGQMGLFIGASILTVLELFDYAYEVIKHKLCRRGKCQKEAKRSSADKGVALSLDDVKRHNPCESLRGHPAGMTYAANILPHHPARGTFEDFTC
Format: cell-based
Set-up: host or cells: HEK293
Experimental: ASIC1a expressing HEK293 cells are grown in culture medium (DMEM with 10% FBS), in polystyrene culture flasks ([…]) at 37° C. in a humidified atmosphere of 5% CO2. Confluency of cells should be 80-90% on day of plating. Cells are rinsed with 10 ml of PBS and cells are re-suspended by addition of culture medium and trituration with a 25 ml pipette.
The cells are seeded at a density of approximately 1×10^6 cells/ml (100 μl/well) in black-walled, clear bottom, 96-well plates pre-treated with 10 mg/l poly-D-lysin (75 μl/well for ≧30 min). Plated cells are allowed to proliferate for 24 h before loading with dye.
Fluo-4/AM (1 mg, Molecular Probes) is dissolved in 912 μl DMSO. The Fluo-4/AM stock solution (1 mM) is diluted with culture medium to a final concentration of 2 μM (loading solution).
The culture medium is aspirated from the wells, and 50 μl of the Fluo-4/AM loading solution is added to each well. The cells are incubated at 37° C. for 30 min.
After the loading period, the loading solution is aspirated and the cells are washed twice with 100 μl modified Assay Buffer (145 mM NaCl, 5 mM KCl, 5 mM CaCl2, 1 mM MgCl2, 10 mM HEPES, pH 7.4) to remove extracellular dye. Following the second wash, 100 μl modified Assay Buffer is added to each well and the fluorescence is measured in FLIPR™ or FlexStation™ (Molecular Devices, USA), or any other suitable equipment known to the skilled in the art.
The MES-induced peak calcium response, in the presence of test substance, is expressed relatively to the MES response alone. Test substances that block the MES-induced calcium response are re-tested in triplicates. Confirmed hits are picked for further characterization by performing full dose-response curves to determine potency of each hit compound as represented by the IC50 values (i.e., the concentration of the test substance which inhibits 50% of the MES-induced calcium response).
`CCN(CC)Cc1cc(-c2cc(F)ccc2OC)cc2c1NC(=O)/C2=N/O` [Compound 213] was tested, and the “% inh. at 40 μM (Flex)” value was <25% inhibition at 40 μM (Flex).

Same assay, conditions: 40 μM, ASIC1a expressing HEK293 cells; read-out: % inh. at 40 μM (Flex)
For `CCN(CC)Cc1cc(-c2cc(F)ccc2OC)ccc1NC(=O)N1CCOCC1` [Compound 214], the inhibition at 40 µM was < 25%.
`COc1ccc(F)cc1-c1ccc2c(c1)COC(=O)N2` [Compound 187, 6-(5-Fluoro-2-methoxy-phenyl)-1,4-dihydro-benzo[d][1,3]oxazin-2-one] gave an inhibition at 40 µM of 25 to 45%.
`COc1ccc(F)cc1-c1ccc(N)c(CO)c1` [Compound 186, (4-Amino-5′-fluoro-2′-methoxy-biphenyl-3-yl)-methanol] was tested, and the inhibition at 40 µM was < 25%.
For `CCN1CCc2c(-c3cccc(C)c3C)cc3c(c2C1)NC(=O)/C3=N/O` [Compound 217], the inhibition at 40 µM was > 50%.
For `CCN(CC)Cc1cc(-c2cc(F)ccc2OC)ccc1NC(=O)N(C)C` [Compound 215], the inhibition at 40 µM was < 25%.
For `CCOC(=O)Nc1ccc(-c2cc(F)ccc2OC)cc1CN(CC)CC` [Compound 212], the inhibition at 40 µM was < 25%.
In the case of `CCN(CC)Cc1cc(-c2cc(F)ccc2OC)cc2c1NC(=O)/C2=N/O` [Compound 183, 7-Diethylaminomethyl-5-(5-fluoro-2-methoxy-phenyl)-1H-indole-2,3-dione 3-oxime], the inhibition at 40 µM is reported as < 25%.

Same assay, conditions: ASIC1a expressing HEK293 cells
In the case of `CCOc1ccccc1-c1cc2c(c3c1CCN(CC)C3)NC(=O)/C2=N/O` [Compound 221], the IC50 is reported as < 10 µM.
With `CCN1CCc2c(-c3cc(Cl)ccc3OC)cc3c(c2C1)NC(=O)/C3=N/O` [Compound 219] the IC50 was < 10 µM.
In the case of `CCN1CCc2c(-c3cc(C)cc(C)c3)cc3c(c2C1)NC(=O)/C3=N/O` [Compound 216], the IC50 is reported as < 10 µM.
For `CCN1CCc2c(-c3cc(C)ccc3C)cc3c(c2C1)NC(=O)/C3=N/O` [Compound 218], the IC50 was < 10 µM.
With `CCN1CCc2c(-c3ccccc3OC)cc3c(c2C1)NC(=O)/C3=N/O` [Compound 220] the IC50 was < 10 µM.
